Data from patent publication US9758544B2 (priority 2014, dated 2017).
pEC50: −log10 of the molar value.

Tested on: subgenomic HCV replicon in Huh-7 cells
Assay: microbe, parasite or virus in culture
Format: cell-based
Conditions: Hepatitis C virus, Huh-7, 72 h, read-out: EC50 (50% inhibitory concentration) in HCV replicon cells

`[2H]C([2H])(OP(=O)(N[C@H](C)C(=O)OC(C)C)Oc1ccccc1)[C@@]1(F)O[C@@H](n2cnc3c(OCC)nc(N)nc32)[C@](C)(F)[C@@H]1O` (stereo partly shown) [Compound 2] was tested, and the pEC50 was > 6.00.
